Test results published in patent publication US6043045A, “Screening methods for the identification of novel antibiotics” (The Scripps Research Institute, priority 1998, dated 2000).
“Also recorded” adds a separate entry of the source. Where two headings read alike, the source gives them in different places.

Target: T1, KinA (Bacillus subtilis, UniProt P16497)
T1 construct: made in house
T1 sequence (P16497 1-606): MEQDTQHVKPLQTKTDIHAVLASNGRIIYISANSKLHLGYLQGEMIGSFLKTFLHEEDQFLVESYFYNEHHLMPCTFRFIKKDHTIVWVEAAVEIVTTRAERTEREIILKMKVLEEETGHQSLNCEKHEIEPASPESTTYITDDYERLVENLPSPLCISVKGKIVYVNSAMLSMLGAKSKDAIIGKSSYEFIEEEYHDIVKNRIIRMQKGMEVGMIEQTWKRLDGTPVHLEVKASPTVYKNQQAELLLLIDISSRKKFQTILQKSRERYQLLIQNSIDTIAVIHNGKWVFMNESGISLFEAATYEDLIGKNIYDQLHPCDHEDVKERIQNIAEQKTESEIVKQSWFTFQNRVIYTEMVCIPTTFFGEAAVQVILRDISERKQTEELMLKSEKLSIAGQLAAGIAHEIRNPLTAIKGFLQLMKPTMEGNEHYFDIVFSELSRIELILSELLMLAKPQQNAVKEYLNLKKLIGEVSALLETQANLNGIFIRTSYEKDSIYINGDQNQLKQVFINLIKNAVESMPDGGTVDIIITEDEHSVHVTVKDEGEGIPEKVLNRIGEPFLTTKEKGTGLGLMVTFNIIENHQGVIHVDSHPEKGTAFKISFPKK
Assay: biochemical
Format: biochemical
Conditions: for inhibition of KinA phosphorylation of SpoOF (in words): tested at 0.08% final concentration
Description: The reactions were performed in a 25 μl final volume containing 100 mM Tris pH 8.0, 100 mM KCl, 2 mM MgCl2, 0.5 mM dithiothreitol, 10% (v/v) glycerol, 0.1 % (w/v) gelatin, 4% (v/v) ethanol, 200 μM total ATP containing approximately 1.5 μCi [gamma-^32 P]ATP (New England Nuclear, 6000 Ci/mMol, 150 μCi/ml), 300 μM SpoOF protein and 0.04 μM KinA protein (Perego, et al., J. Bacteriol. 171: 6187-6196 (1989)) unless otherwise indicated. Fatty acids were added to varying final concentration from solutions made with 100% ethanol (the 4% ethanol concentration in the reaction mixture reflects these addition, or in the case of controls, the addition of ethanol alone). The reactions were initiated by addition of the ATP and incubated for thirty minutes at room temperature.
When higher KinA concentrations were used, the time of incubation was adjusted accordingly. The reactions were stopped by adding an equal volume of loading dye (0.25 M Tris pH 6.8, 20% (v/v) glycerol, 1% sodium dodecyl sulfate (w/v), 140 mM β-mercaptoethanol, 0.05% (w/v) bromophenol blue) and aliquots were loaded onto polyacrylamide gels (5% stacking, 15% separating, using the buffer system of Laemmi, Id., 1970).
The gels were run for approximately 16 hours at 10 mA constant current. The gels were covered with plastic wrap and subjected to autoradiography using Kodak XOmat RP1 film. Quantitation of activity was accomplished by cutting gels slices containing the appropriate phosphoprotein (usually SpoOF~P, see Section E below) and counting the Cerenkov radiation in a Beckman LF7500 scintillation counter (Beckman Instruments, Fullerton, Calif.). Equal-sized slices from blank areas of the gels were also counted and used to adjust for background. Percentage of activity was calculated using the value of the control reaction as 100%.
To quantify our initial assessment of inhibitory properties, the I0.5 values (at 4×10^-8 M KinA) were determined for each of the fatty acids. […] For example, the percent activity at an indicated oleic acid concentration is the ratio (×100) of the incorporation of ^32 P (from [γ^32 P]ATP) into the SpoOF protein relative to the incorporation in the control reaction containing no inhibitor. Typically, data are gathered from at least two different experiments. The I0.5 value is the concentration--e.g., the oleic acid concentration--corresponding to 50% activity as determined from the relevant graph.

[1] = Table 4, I0.5 at 4×10^-8 M KinA, 32P incorporation into SpoOF, read-out: Fatty Acid Inhibitors of KinA Activity (category by I0.5)
[2] = at 4×10^-8 M KinA, read-out: I0.5 value (concentration corresponding to 50% KinA activity)
[3] = Fatty Acid Inhibitors of KinA Activity (category by I0.5), Table 4, I0.5 at 4×10^-8 M KinA, 32P incorporation into SpoOF

CC(C)CCCCCCCCCCC(=O)O [12-methyltridecanoic]
inhibitory effect on KinA in vitro (in words): weak inhibitors
IC50 [1]: 100 to 500 µM
inhibitory effect on KinA in vitro (in words) (listed as 12-methyltridecanoic acid): weak in vitro inhibitors
inhibitory effect on KinA in vitro (in words) (listed as iso 14:0): weak inhibitory properties

CC(C)CCCCCCCCCCCC(=O)O [13-methyltetradecanoic]
inhibitory effect on KinA in vitro (in words): weak inhibitors
IC50 [1]: 100 to 500 µM
IC50 [2]: 400 µM
inhibitory effect on KinA in vitro (in words) (listed as 13-methyltetradecanoic acid): weak in vitro inhibitors
inhibitory effect on KinA in vitro (in words) (listed as iso 15:0): weak inhibitory properties

CC(C)CCCCCCCCCCCCC(=O)O [14-methylpentadecanoic]
inhibitory effect on KinA in vitro (in words): not inhibitors
IC50 [1]: > 1000 µM

CC(C)CCCCCCCCCCCCCC(=O)O [15-methylhexadecanoic]
inhibitory effect on KinA in vitro (in words): not inhibitors
IC50 [1]: > 1000 µM

CC(C)CCCCCCCCCCCCCCC(=O)O [16-methylheptadecanoic]
inhibitory effect on KinA in vitro (in words): not inhibitors
IC50 [1]: > 1000 µM

CCCCC/C=C\C/C=C\C/C=C\C/C=C\CCCC(=O)O [all cis-5,8,11,14-eicosatetraenoic]
IC50 [3]: < 70 µM

CC/C=C\C/C=C\C/C=C\CCCCCCCC(=O)O [all cis-9,12,15-octadecanoic]
IC50 [1]: < 70 µM

CCCCC/C=C\C/C=C\CCCCCCCC(=O)O [cis,cis-9,12-octadecenoic]
IC50 [1]: < 70 µM

CCCCCCCCCCC/C=C\CCCCC(=O)O [cis-6-octadecanoic]
IC50 [1]: < 70 µM

CCCCCC/C=C\CCCCCCCC(=O)O [cis-9-hexadecanoic]
inhibitory effect on KinA in vitro (in words): potent inhibitors
IC50 [1]: < 70 µM

CCCC/C=C\CCCCCCCC(=O)O [cis-9-tetradecenoic]
inhibitory effect on KinA in vitro (in words): only a weak inhibitor
IC50 [1]: 100 to 500 µM
IC50 [2]: 200 µM

CCCCCCCC/C=C\CCCCCCCCCC(=O)O [cis-11-eicosenoic]
IC50 [1]: < 70 µM

CCCCCC/C=C\CCCCCCCCCC(=O)O [cis-11-octadecanoic]
inhibitory effect on KinA in vitro (in words): potent inhibitors
IC50 [3]: < 70 µM

CCCCCCCC/C=C\CCCCCCCCCCCC(=O)O [cis-13-docosenoic]
inhibitory effect on KinA in vitro (in words): non-inhibitory
IC50 [1]: > 1000 µM

CCCCCCCC/C=C\CCCCCCCCCCCCCC(=O)O [cis-15-tetracosenoic]
inhibitory effect on KinA in vitro (in words): non-inhibitory
IC50 [3]: > 1000 µM

CCCCCCCCCC(=O)O [decanoic]
inhibitory effect on KinA in vitro (in words): not inhibitors
IC50 [3]: > 1000 µM

CCCCCCCCCCCC(=O)O [dodecanoic]
inhibitory effect on KinA in vitro (in words): not inhibitors
IC50 [1]: > 1000 µM

CCCCCCCCCCCCCCCCCCCC(=O)O [eicosanoic]
IC50 [1]: > 1000 µM

O=P(O)(O)OCC(O)CO (centres unmarked) [glycerophosphate]
inhibition of KinA phosphorylation of SpoOF (in words): Only oleic acid and stearic acid were inhibitory

CCCCCCCCCCCCCCCCC(=O)O [heptadecanoic]
IC50 [1]: > 1000 µM

CCCCCCCCCCCCCCCC(=O)O [hexadecanoic]
inhibitory effect on KinA in vitro (in words): little or no inhibitory effect
IC50 [1]: > 1000 µM
inhibition of KinA phosphorylation of SpoOF (in words): Only oleic acid and stearic acid were inhibitory

CCCCCC(=O)O [hexanoic]
inhibitory effect on KinA in vitro (in words): not inhibitors
IC50 [1]: > 1000 µM

CCCCCCCCCCCCCCCCCC(=O)O [octadecanoic]
IC50 [3]: 100 to 500 µM
IC50 (I0.5 value (concentration corresponding to 50% KinA activity), at 4×10^-8 M KinA): 500 µM
inhibitory effect on KinA in vitro (in words) (listed as stearic): little or no inhibitory effect
inhibitory effect on KinA in vitro (in words) (listed as stearic acid): weak inhibitor; also recorded: very weak inhibitor
inhibition of KinA phosphorylation of SpoOF (in words): weak inhibition

CCCCCCCC(=O)O [octanoic]
inhibitory effect on KinA in vitro (in words): not inhibitors
IC50 [1]: > 1000 µM

CCCCCCCCCCCCCC(=O)O [tetradecanoic]
IC50 [1]: > 1000 µM

C/C=C/C(=O)O [trans-2-butenoic]
IC50 [1]: > 1000 µM

CCCCCCCC/C=C/CCCCCCCC(=O)O [trans-9-octadecenoic]
IC50 [1]: > 1000 µM
inhibitory effect on KinA in vitro (in words) (listed as elaidic): little or no inhibitory effect; also recorded: not inhibitory

CCCCCC/C=C/CCCCCCCCCC(=O)O [trans-11-octadecenoic]
IC50 [3]: > 1000 µM
inhibitory effect on KinA in vitro (in words) (listed as trans-vaccenic): little or no inhibitory effect; also recorded: not inhibitory

L-α-glycerophosphatidylcholine
inhibition of KinA phosphorylation of SpoOF (in words): Only oleic acid and stearic acid were inhibitory

L-α-phosphatidic acid
inhibition of KinA phosphorylation of SpoOF (in words): Only oleic acid and stearic acid were inhibitory

L-α-phosphatidylcholine
inhibition of KinA phosphorylation of SpoOF (in words): Only oleic acid and stearic acid were inhibitory
